Data from ChEMBL document CHEMBL5316352, “Puromycin Prodrug Activation by Thioredoxin Reductase Overcomes Its Promiscuous Cytotoxicity” (J Med Chem, 2023).
The source made the active and inactive calls. No cut-off for these calls is given here.

How the values were obtained:
[1] = test system: HeLa; assay: Cytotoxicity against human HeLa cells with high TrxR expression assessed as reduction in cell viability incubated for 48 hrs by MTT assay; assay type: functional, cell-based
[2] = test system: HepG2; assay: Cytotoxicity against human HepG2 cells with high TrxR expression assessed as reduction in cell viability incubated for 48 hrs by MTT assay; assay type: functional, cell-based; conditions: HepG2, 48 h
[3] = test system: HL-60; assay: Cytotoxicity against human HL-60 cells with low TrxR expression assessed as reduction in cell viability incubated for 48 hrs by MTT assay; assay type: functional, cell-based; conditions: HL-60, 48 h
[4] = test system: MCF7; assay: Cytotoxicity against human MCF7 cells with low TrxR expression assessed as reduction in cell viability incubated for 48 hrs by MTT assay; assay type: functional, cell-based; conditions: MCF7, 48 h
[5] = Cytotoxicity against human HEK293T cells with low TrxR expression assessed as reduction in cell viability incubated for 48 hrs by MTT assay; assay type: toxicity, cell-based, HEK-293T
[6] = Cytotoxicity against human BEAS-2B cells with low TrxR expression assessed as reduction in cell viability incubated for 48 hrs by MTT assay; assay type: toxicity, cell-based
[7] = Stability of compound in PBS at pH 7.4 assessed as parent compound remaining at 100 uM measured after 48 hrs by HPLC analysis; assay type: physicochemical; conditions: read-out: Stability
[8] = Stability in mouse plasma assessed as parent compound remaining at 100 uM measured after 48 hrs by HPLC analysis; assay type: ADME, cell-free; conditions: read-out: Stability
[9] = Stability in human plasma assessed as parent compound remaining at 100 uM measured after 48 hrs by HPLC analysis; assay type: ADME, cell-free; conditions: read-out: Stability
[10] = test system: HeLa; assay: Potency index, ratio of test compound IC50 to puromycin IC50 for cytotoxicity against human HeLa cells; assay type: functional
[11] = test system: HepG2; assay: Potency index, ratio of test compound IC50 to puromycin IC50 for cytotoxicity against human HepG2 cells; assay type: functional
[12] = test system: HL-60; assay: Potency index, ratio of test compound IC50 to puromycin IC50 for cytotoxicity against human HL-60 cells; assay type: functional
[13] = test system: MCF7; assay: Potency index, ratio of test compound IC50 to puromycin IC50 for cytotoxicity against human MCF7 cells; assay type: functional
[14] = test system: HEK-293T; assay: Potency index, ratio of test compound IC50 to puromycin IC50 for cytotoxicity against human HEK293T cells; assay type: functional
[15] = test system: BEAS-2B; assay: Potency index, ratio of test compound IC50 to puromycin IC50 for cytotoxicity against human BEAS-2B cells; assay type: functional
[16] = test system: HepG2; assay: Cytotoxicity against human HepG2 cells expressing shNT assessed as reduction in cell viability incubated for 48 hrs by MTT assay; assay type: functional, cell-based; conditions: HepG2, 48 h
[17] = test system: HepG2; assay: Cytotoxicity against human HepG2 cells expressing shTXNRD1 assessed as reduction in cell viability incubated for 48 hrs by MTT assay; assay type: functional, cell-based; conditions: HepG2, 48 h
[18] = Prodrug activation assessed as increase in TrxR (unknown origin) mediated NADPH oxidation by measuring absorbance at 340 nm at 150 uM; conditions: human
[19] = biological target: T1, Thioredoxin (Homo sapiens) (UniProt P10599); assay: (§1) Substrate activity at Trx (unknown origin) assessed as reduction in 1,2-dithiolan-4-yl ((S)-1-(((2S,3S,4R,5R)-5-(6-(dimethylamino)-9H-purin-9-yl)-4-hydroxy-2-(hydroxymethyl)tetrahydrofuran-3-yl)amino)-3-(4-methoxyphenyl)-1-oxopropan-2-yl)carbamate level by measuring absorbance at 340 nm at 150 uM in presence of NADPH
T1 sequence (whole entry): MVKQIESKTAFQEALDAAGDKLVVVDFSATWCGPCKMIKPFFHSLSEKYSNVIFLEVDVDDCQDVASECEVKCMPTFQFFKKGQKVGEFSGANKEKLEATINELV

[20] = (§2) Prodrug activation in human HeLa cell lysate assessed as reduction in 1,2-dithiolan-4-yl ((S)-1-(((2S,3S,4R,5R)-5-(6-(dimethylamino)-9H-purin-9-yl)-4-hydroxy-2-(hydroxymethyl)tetrahydrofuran-3-yl)amino)-3-(4-methoxyphenyl)-1-oxopropan-2-yl)carbamate level by measuring absorbance at 340 nm at 150 uM pretreated with TrxR inhibitor AF for 30 mins followed by compound addition in presence of NADPH; assay type: ADME, subcellular
[21] = as §2, with “lysate expressing shTXNRD1” for “lysate”; assay type: ADME, subcellular
[22] = biological target: T1, Thioredoxin (Homo sapiens); assay: as §1, with “2-((2-hydroxyethyl)disulfaneyl)ethyl” for “1,2-dithiolan-4-yl”
[23] = Prodrug activation assessed as GSH mediated compound reduction by measuring absorbance at 340 nm at 150 uM in presence of NADPH
[24] = Prodrug activation assessed as TrxR (unknown origin) mediated compound reduction by measuring absorbance at 340 nm at 150 uM in presence of NADPH; conditions: human
[25] = Prodrug activation in human HepG2 cells assessed as increase in biotin labelling at 10 uM incubated for 12 hrs by Western blotting analysis; assay type: cell-based; conditions: hepg2, 12 h
[26] = Prodrug activation in human HepG2 cells assessed as increase in rhodamine labelling at 10 uM incubated for 12 hrs by in-gel fluorescence imaging analysis; assay type: cell-based; conditions: hepg2, 12 h
[27] = Prodrug conversion in human HepG2 cells assessed as inhibition of proteome incorporation at 1 uM pretreated with AF for 30 mins followed by compound addition; assay type: cell-based; conditions: hepg2, 1 µM
[28] = Prodrug activation in human HepG2 cells assessed as increase in biotin labelling at 1 uM incubated for 12 hrs by Western blotting analysis; assay type: cell-based; conditions: hepg2, 12 h
[29] = Prodrug activation in human HepG2 cells assessed as increase in rhodamine labelling at 1 uM incubated for 12 hrs by in-gel fluorescence imaging analysis; assay type: cell-based; conditions: hepg2, 12 h
[30] = Prodrug conversion in human HepG2 cells assessed as proteome incorporation at 1 uM pretreated with AF for 30 mins followed by compound addition; assay type: ADME, cell-based; conditions: hepg2, 1 µM

remaining at 48 h, 100 µM [7] | remaining at 48 h, 100 µM [8] | remaining at 48 h, 100 µM [9] | SMILES | IC50 [1] | IC50 [2] | IC50 [3] | IC50 [4] | IC50 at 48 h [5] | IC50 at 48 h [6] | other results
 |  |  | COc1ccc(C[C@H](N)C(=O)N[C@H]2[C@@H](O)[C@H](n3cnc4c(N(C)C)ncnc43)O[C@@H]2CO)cc1 [PUROMYCIN] | 0.9 µM | 1.29 µM | 3.73 µM | 1.06 µM | 1.28 µM | 0.74 µM | 
> 90% | > 90% | > 90% | COc1ccc(C[C@H](NC(=O)OC2CSSC2)C(=O)N[C@H]2[C@@H](O)[C@H](n3cnc4c(N(C)C)ncnc43)O[C@@H]2CO)cc1 | 6.08 µM | 8.08 µM | 55 µM | 14.2 µM | 19.5 µM | 8.42 µM | Ratio IC50 [10]: 6.8; Ratio IC50 [11]: 6.3; Ratio IC50 [12]: 14.7; Ratio IC50 [13]: 13.4; Ratio IC50 [14]: 15.2; Ratio IC50 [15]: 11.4; IC50 [16]: 4.88 µM; IC50 [17]: 11.3 µM; Activity [18]: Active; Activity [19]: Active; Drug metabolism [20]: Metabolite_Notdetected; Drug metabolism [21]: Metabolite_Notdetected
> 90% | 42% | 29% | COc1ccc(C[C@H](NC(=O)OCCSSCCO)C(=O)N[C@H]2[C@@H](O)[C@H](n3cnc4c(N(C)C)ncnc43)O[C@@H]2CO)cc1 | 6.84 µM | 9.27 µM | 56.7 µM | 27.5 µM | 24.7 µM | 12.6 µM | Activity [22]: Active; Activity [23]: Active
> 90% | > 90% | > 90% | COc1ccc(C[C@H](NC(=O)OC2CCCC2)C(=O)N[C@H]2[C@@H](O)[C@H](n3cnc4c(N(C)C)ncnc43)O[C@@H]2CO)cc1 | > 40 µM | > 40 µM | > 40 µM | > 40 µM | > 40 µM | > 40 µM | Drug metabolism [24]: Metabolite_Notdetected
 |  |  | C#CCOc1ccc(C[C@H](NC(=O)OC2CSSC2)C(=O)N[C@H]2[C@@H](O)[C@H](n3cnc4c(N(C)C)ncnc43)O[C@@H]2CO)cc1 |  |  |  |  |  |  | Activity [25]: Active; Activity [26]: Active; inhibition (INH) [27]: Active
> 90% | > 90% | > 90% | COc1ccc(C[C@H](NC(=O)OCCCCCCO)C(=O)N[C@H]2[C@@H](O)[C@H](n3cnc4c(N(C)C)ncnc43)O[C@@H]2CO)cc1 | > 40 µM | > 40 µM | > 40 µM | > 40 µM | > 40 µM | > 40 µM | Drug metabolism [24]: Metabolite_Notdetected
 |  |  | C#CCOc1ccc(C[C@H](N)C(=O)N[C@H]2[C@@H](O)[C@H](n3cnc4c(N(C)C)ncnc43)O[C@@H]2CO)cc1 |  |  |  |  |  |  | Activity [28]: Active; Activity [29]: Active; Activity [30]: Active
